Data taken from PMC11898053, “Structure-Based Identification of Non-covalent Prolyl Oligopeptidase 80 Inhibitors Targeting Trypanosoma cruzi Cell Entry” (Journal of Chemical Information and Modeling, 2025).
Like-named read-outs stand apart in the source and are kept apart here.

Assays:
[1] = Cytotoxicity assay (resazurin); type: cell-based; details: rat, L6 cells, pH 7.4; 72 h incubation
Procedure: L6 cells were cultured in 96-well plates at a density of 1 × 10^4 cells/well in 100 μL of RPMI 1640 medium supplemented with 10% heat-inactivated fetal bovine serum (FBS) and 25 mM HEPES pH 7.4, maintained at 37 °C, under a 5% CO2 atmosphere. After 24h, the compounds were diluted, starting at a concentration of 200 μM, in 100 μL of complete culture medium per well. Subsequently, 100 μL of the diluted compounds were added to the seeded cells. After 72 h of incubation, Resazurin solution (Sigma) was added to a final concentration of 20 μM and incubated for another 4h at 37 °C. Fluorescence was then measured at 570 nm (excitation) and 595 nm (emission) using a SpectraMax M5 microplate reader (Molecular Devices, Sunnyvale, CA, USA). The cytotoxic concentrations causing 50% inhibition of cell growth (CC50) were determined from data obtained in two independent experiments and calculated similarly to the EC50, as described above.

recombinant POPTc80 = recombinant POPTc80 (Trypanosoma cruzi, UniProt Q4E132); assay: POPTc80 enzyme inhibition and kinetic assay (Suc-GPLGP-AMC fluorogenic substrate); type: biochemical
Chain of recombinant POPTc80 (Q4E132 entry or part of it): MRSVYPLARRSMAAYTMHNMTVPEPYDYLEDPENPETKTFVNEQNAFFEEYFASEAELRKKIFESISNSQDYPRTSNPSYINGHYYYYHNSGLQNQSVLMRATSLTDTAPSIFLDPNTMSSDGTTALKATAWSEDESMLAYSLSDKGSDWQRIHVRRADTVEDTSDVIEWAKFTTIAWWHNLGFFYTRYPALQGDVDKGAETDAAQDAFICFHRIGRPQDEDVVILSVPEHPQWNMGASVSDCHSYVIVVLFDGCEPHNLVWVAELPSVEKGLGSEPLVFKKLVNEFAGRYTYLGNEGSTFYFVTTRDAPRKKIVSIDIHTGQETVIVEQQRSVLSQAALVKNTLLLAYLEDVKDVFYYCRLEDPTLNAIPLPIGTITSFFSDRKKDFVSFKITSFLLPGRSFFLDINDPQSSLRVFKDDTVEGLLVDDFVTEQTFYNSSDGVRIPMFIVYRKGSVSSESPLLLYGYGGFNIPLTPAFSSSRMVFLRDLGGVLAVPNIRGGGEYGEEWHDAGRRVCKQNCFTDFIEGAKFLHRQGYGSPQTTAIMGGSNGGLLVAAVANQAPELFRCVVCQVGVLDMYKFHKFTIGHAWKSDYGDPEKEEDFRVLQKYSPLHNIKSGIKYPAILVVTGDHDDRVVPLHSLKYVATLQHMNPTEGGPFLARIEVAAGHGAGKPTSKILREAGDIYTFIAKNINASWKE
Procedure: The enzyme activity was assessed using the fluorogenic substrate Suc-GPLGP-AMC previously described by Santana et al.[14] A total of 20 ng of pure recombinant POPTc80 was incubated with 20 μM Suc-GPLGP-AMC in a 25 mM HEPES buffer containing 5 mM DTT at pH 7.5. The release of AMC was monitored over a period of 20 min by measuring its emission at 460 nm, following excitation at 355 nm, using a 96-well microplate fluorescence reader (M5, Molecular Devices). The IC50 values were obtained by a series of at least 9 points from 200 to 0.01 μM of the compound, plus the control. The data were subjected to a four-parameter logistic (4 PL) nonlinear regression model using GraphPad Prism 8 software to calculate the IC50. […] Active enzyme concentration was determined by titration with a chloromethyl ketone irreversible inhibitor of POPTc80.[13] All kinetic parameters were determined by nonlinear regression employing the GraphPad Prism enzyme kinetics module and Hanes-Woolf plots.[64]

[2] = test system: T. cruzi strain Y trypomastigotes; assay: Host cell infection inhibition assay (trypomastigote entry into L6 cells); type: cell-based, Trypanosoma cruzi; details: 1 h preincubation, 3 h infection, 72 h culture
Procedure: The assay was performed as previously described by Grellier et al.,[15] with slight modifications. Briefly, L6 cells were seeded in flasks containing RPMI medium supplemented with 5% fetal bovine serum and 1% penicillin/streptomycin (Gibco 15140122) and incubated at 37 °C in a 5% CO2 atmosphere. Trypomastigotes of T. cruzi strain Y were preincubated for 1 h at 37 °C in a culture medium containing different concentrations of inhibitors (0–200 μM, five points). Subsequently, they were added to L6 cell cultures that had been previously grown for 24h in 96-well plates (1000 cells/well) at a trypomastigote-to-host cell ratio of 30:1. After 3 h incubation at 37 °C, the wells were washed three times with inhibitor-free culture medium, and the cells were maintained for 72 h without inhibitors before fixation and staining with panoptic stain. The percentage of infected cells was determined by counting at least 200 host cells under 400-fold magnification. The inhibition of host cell invasion was calculated by comparing the percentage of infected cells in treated wells to that in untreated control wells. The concentration required to inhibit 50% of invasion (EC50) was determined using a nonlinear regression model applied to dose–response curves in GraphPad Prism v.8.

POPTc80 = details: cited from earlier work
T. cruzi = test system: T. cruzi; set-up: method as in PMID 11598112; details: phenotypic data; cited from earlier work
[3] = 20 μM Suc-GPLGP-AMC, pH 7.5, means ± SD of three replications, read-out: POPTc80 IC50
[4] = four compound and five substrate concentrations, means ± SD of three replications, read-out: POPTc80 Ki
[5] = Trypanosoma cruzi, L6, inhibition of host cell invasion
[6] = inhibition of host cell invasion

O=C(C1CCCN1C(=O)CCCc1ccc(Cl)cc1)N1CCOCC1 (stereo not drawn) [LC-55]
CC50 at 72 h [1]: > 200 µM | POPTc80 LE (ligand efficiency) (recombinant POPTc80): 0.35 kcal/mol per heavy atoms | IC50 (recombinant POPTc80; [3]): 0.44 ± 0.08 µM | Ki (recombinant POPTc80; [4]): 0.83 ± 0.11 µM | EC50 [2, 5]: 16.2 µM | EC50 [2, 6]: 18.6 ± 3.79 µM

Cc1csc(SCC(=O)N2CCCC2C(=O)N2CCOCC2)n1 (stereo not drawn) [LC-49]
IC50 (recombinant POPTc80; [3]): > 20 µM

Cn1c(CNC(=O)C2CCCCC2C(=O)N2CCCC2)nc2ccccc21 (stereo not drawn) [LC-53]
CC50 at 72 h [1]: > 200 µM | POPTc80 LE (ligand efficiency) (recombinant POPTc80): 0.35 kcal/mol per heavy atoms | IC50 (recombinant POPTc80; [3]): 0.27 ± 0.07 µM | Ki (recombinant POPTc80; [4]): 0.158 ± 0.044 µM | EC50 [2, 5]: 24.9 ± 3.45 µM

COC(OC)C1CCCN1C(=O)C1CCCN1C(=O)OCc1ccccc1 (stereo not drawn) [ZPPD, Z-P-prolinal dimethylacetal]
POPTc80 LE (ligand efficiency) (recombinant POPTc80): 0.31 kcal/mol per heavy atoms | IC50 (POPTc80): 6.7 µM | Ki (POPTc80): 1.12 ± 0.12 µM | EC50 (T. cruzi): 250 µM

O=C(NCCc1nc2cc(F)ccc2[nH]1)C1CCCCN1C(=O)C1CC1 (stereo not drawn) [LC-42]
IC50 (recombinant POPTc80; [3]): > 20 µM

O=C(C1CCCN1C(=O)NCc1cc2ccccc2s1)N1CCOCC1 (stereo not drawn) [LC-50]
CC50 at 72 h [1]: > 200 µM | IC50 (recombinant POPTc80): 0.59 ± 0.19 µM | Ki (recombinant POPTc80): 0.44 ± 0.09 µM | POPTc80 LE (ligand efficiency) (recombinant POPTc80): 0.31 kcal/mol per heavy atoms | EC50 [2, 5]: 80.2 ± 5.27 µM

Cc1nn(C)c(C)c1CCC(=O)N1CCCC1C(=O)N1CCCCC1 (stereo not drawn) [LC-56]
IC50 (recombinant POPTc80; [3]): > 20 µM

O=C(C1CCCN1C(=O)Cn1sc2ccccc2c1=O)N1CCCCC1 (stereo not drawn) [LC-57]
IC50 (recombinant POPTc80; [3]): > 20 µM

Cc1nc2ccc(CNC(=O)C3CCCCC3C(=O)N3CCCC3)cc2[nH]1 (stereo not drawn) [LC-47]
POPTc80 LE (ligand efficiency) (recombinant POPTc80): 0.30 kcal/mol per heavy atoms | IC50 (recombinant POPTc80; read-out: POPTc80 IC50, 20 μM Suc-GPLGP-AMC, pH 7.5, means ± SD of three replications): 1.21 ± 0.32 µM | Ki (recombinant POPTc80; read-out: POPTc80 Ki, four compound and five substrate concentrations, means ± SD of three replications): 1.99 ± 0.26 µM

O=C(NCCCc1nc2cc(Cl)ccc2[nH]1)C1CCCCN1C(=O)C1CC1 (stereo not drawn) [LC-40]
IC50 (recombinant POPTc80; [3]): > 20 µM

O=C(NCCc1cnccn1)C1CCCCC1C(=O)N1CCCC1 (stereo not drawn) [LC-48]
IC50 (recombinant POPTc80; [3]): 0.95 ± 0.1 µM

O=C(NCCCc1ccccn1)C1CCCCC1C(=O)N1CCCC1 (stereo not drawn) [LC-46]
CC50 at 72 h [1]: > 200 µM | POPTc80 LE (ligand efficiency) (recombinant POPTc80): 0.35 kcal/mol per heavy atoms | IC50 (recombinant POPTc80; [3]): 0.4 ± 0.24 µM | Ki (recombinant POPTc80; [4]): 0.513 ± 0.218 µM | EC50 [2, 5]: 46.6 ± 20.8 µM

Cc1cccc(NC(=O)CC(=O)N2CCCC2C(=O)N2CCOCC2)c1 (stereo not drawn) [LC-54]
IC50 (recombinant POPTc80; [3]): > 20 µM

O=C(NCCc1cscn1)C1CCCCC1C(=O)N1CCCC1 (stereo not drawn) [LC-45]
CC50 at 72 h [1]: > 200 µM | POPTc80 LE (ligand efficiency) (recombinant POPTc80): 0.44 kcal/mol per heavy atoms | IC50 (recombinant POPTc80; [3]): 0.23 ± 0.08 µM | Ki (recombinant POPTc80; [4]): 0.054 ± 0.006 µM | EC50 [2, 5]: 46.7 ± 3.55 µM

O=C(NCCc1cnn(-c2ccccc2)c1)C1CCCCN1C(=O)C1CC1 (stereo not drawn) [LC-39]
IC50 (recombinant POPTc80; [3]): > 20 µM

O=C(NCCOc1cccc2cccnc12)C1CCCCC1C(=O)N1CCCC1 (stereo not drawn) [LC-44]
CC50 at 72 h [1]: > 200 µM | POPTc80 LE (ligand efficiency) (recombinant POPTc80): 0.33 kcal/mol per heavy atoms | IC50 (recombinant POPTc80; [3]): 0.64 ± 0.1 µM | Ki (recombinant POPTc80; [4]): 0.175 ± 0.031 µM | EC50 [2, 5]: 92.5 µM | EC50 [2, 6]: 92.4 ± 3.74 µM

O=C(NCCc1nccs1)C1CCCCN1C(=O)C1CC1 (stereo not drawn) [LC-41]
IC50 (recombinant POPTc80; [3]): > 20 µM
